Data taken from patent US6949513B2, “Polypeptides of covalently linked synthetic bioactive peptide analog(s) for treatment of cancer” (Dabur Research Foundation, priority 2001, dated 2005).
Positions of bridges follow the written chain, without caps; N, C: chain ends. Non-standard residues stand in square brackets, D forms with d. Residues, ends and D or L forms follow the SMILES beside them. Pen = CC(C)(S)[C@H](N)C(=O)O; Orn = NCCC[C@H](N)C(=O)O; Ac5c = NC1(C(=O)O)CCCC1; Aib = CC(C)(N)C(=O)O

Tests used:
MCF-7 (Breast) = test: three day MTT cytotoxicity assay, MCF-7; assay type: cell-based, human; settings: 72 hours
Method: (§1) SEQ ID NO: 5 and SEQ ID NO: 7 were tested for cytotoxicity against 6 human tumor cell lines. Briefly, a three day MTT cytotoxicity assay was performed, which is based on the principle of uptake of MTT (3-(4,5-dimethylthiazol-2-yl)-2,5-diphenyl tetrazolium bromide), a tetrazolium salt, by the metabolically active cells where it is metabolized by active mitochondria into a blue colored formazan product that is read spectrophoto-metrically. MTT was dissolved in phosphate buffered saline with a pH of 7.4 to obtain an MTT concentration of 5 mg/ml; the resulting mixture was filtered through a 0.22 micron filter to sterilize and remove a small amount of insoluble residue. For each type of tumor cell, 20,000 to 50,000 cells were seeded in a 96-well culture plate and incubated with the drug in a CO2 incubator for 72 hours. The final concentration range of SEQ ID NO: 5 and SEQ ID NO: 7 was 1 nM to 10 μM. The drug was added at time 0, 24 and 48 hours. Control cells not treated with the drug were similarly incubated. The assay was terminated after 72 hours by adding 100 ug (20 ul) of MTT to each well, then incubating for additional one hour, and finally adding 50 ul of 10% SDS-0.01N HCl to each well to lyse the cells and dissolve formazan. After incubating for one hour, the plate was read spectrophotometrically at 540 nm and the cytotoxicity percentage calculated. The following Tables 1 and 2 show the dose response of SEQ ID NO: 5 and SEQ ID NO: 7 respectively along with their respective ED50 values on different tumor cell lines.

MiaPaCa.2 (Pancreas) = test: three day MTT cytotoxicity assay, MiaPaCa.2; assay type: cell-based, human; settings: 72 hours
Method: as §1

[1] = test system: PTC (colon) tumor xenografts; test: antitumor activity on PTC (colon) tumor xenografts grown in nude mice; assay type: in vivo, Balb/c athymic mice; settings: 50 μg twice a day (total 100 μg), 14 days, compared to untreated mice
Method: PTC (colon) tumor xenografts were initiated in Balb/c athymic mice by subcutaneous inoculation of a single cell suspension of PTC cells(15×10^6 cells/[…]). When the average tumor volume reached around 2000 mm^3 the tumor-bearing mice were divided into three groups of 3 animals each. Two groups were randomly assigned for SEQ ID NO: 5 and SEQ ID NO: 7 treatment while the third group served as control. SEQ ID NO: 5 and SEQ ID NO:7 were prepared at a concentration of 250 μg/ml so as to deliver a dose of 50 μg per 200 μl. The injections were given twice a day at 12 hour intervals so as to deliver a total dose of 100 μg. The treatment was continued daily for a period of 14 days. The anti-tumor activity of SEQ ID NO: 5 and SEQ ID NO: 7 was monitored by measuring tumor volumes every fourth day and calculating volumes using the formula 0.4×W^2×L (W=smaller dia, L=larger dia,).

trypsin = trypsin digestion of the polypeptide; assay type: in vitro ADME; settings: trypsin 1:25 w/w, 37° C., pH 8.0-8.5
Method: On controlled digestion of the polypeptide peptide (SEQ ID NO:5), with enzyme trypsin, for ˜15 minutes, 3 major peaks were identifiable on analytical HPLC.
Briefly, the peptide was weighed, dissolved in NH4HCO3 buffer (pH 8.0) and mixed with freshly made enzyme trypsin (1 mg/ml in water) in a ratio of 1:25 (w/w) of enzyme: substrate, according to published protocol (Ref.: Methods in Mol. Bio., Vol. 32, Basic protein and peptide protocols, Enzymatic methods for cleaving proteins). The digestion mixture was incubated at 37° C. Aliquots were taken at different time points and analyzed on analytical HPLC (Shimadzu, Japan). The 15′ enzyme digest sample was picked up for analysis by MALDI-MS.

L132 (Lung) = test: three day MTT cytotoxicity assay, L132; assay type: cell-based, human; settings: 72 hours
Method: as §1

MOLT-4 (Leukemia) = test: three day MTT cytotoxicity assay, MOLT-4; assay type: cell-based, human; settings: 72 hours
Method: as §1

KB (Oral) = test: three day MTT cytotoxicity assay, KB; assay type: cell-based, human; settings: 72 hours
Method: as §1

PTC (Colon) = test: three day MTT cytotoxicity assay, PTC; assay type: cell-based, human; settings: 72 hours
Method: as §1

Structure (SMILES) | Percent cytotoxicity (MCF-7 (Breast); 1 nM) | Percent cytotoxicity (MCF-7 (Breast); 10 nM) | Percent cytotoxicity (MCF-7 (Breast); 100 nM) | Percent cytotoxicity (MCF-7 (Breast); 1 μM) | Percent cytotoxicity (MCF-7 (Breast); 10 μM) | Percent cytotoxicity (MiaPaCa.2 (Pancreas); 1 nM) | Percent cytotoxicity (MiaPaCa.2 (Pancreas); 10 nM) | Percent cytotoxicity (MiaPaCa.2 (Pancreas); 100 nM) | Percent cytotoxicity (MiaPaCa.2 (Pancreas); 1 μM) | Percent cytotoxicity (MiaPaCa.2 (Pancreas); 10 μM) | Tumor regression [1] [%] | Percent cytotoxicity (L132 (Lung); 1 nM) | Percent cytotoxicity (L132 (Lung); 10 nM) | Percent cytotoxicity (L132 (Lung); 100 nM) | Percent cytotoxicity (L132 (Lung); 1 μM) | Percent cytotoxicity (L132 (Lung); 10 μM) | Percent cytotoxicity (MOLT-4 (Leukemia); 1 nM) | Percent cytotoxicity (MOLT-4 (Leukemia); 10 nM) | Percent cytotoxicity (MOLT-4 (Leukemia); 100 nM) | Percent cytotoxicity (MOLT-4 (Leukemia); 1 μM) | other results
CSCC[C@H](NC(=O)[C@H](CC(C)C)NC(=O)[C@H](CCCCN)NC(=O)[C@H](CCCCN)NC(=O)C1(NC(=O)[C@H](CC(C)C)NC(=O)[C@@H](Cc2c[nH]c3ccccc23)NC(=O)[C@H](Cc2ccccc2)NC(=O)[C@@H](Cc2c[nH]c3ccccc23)NC(=O)[C@H](CCC(N)=O)NC(=O)[C@@H](Cc2ccccc2)NC(=O)[C@@H]2CCCN2C(=O)[C@H](CCCCN)NC(=O)[C@@H]2CCCN2C(=O)[C@@H](CCCNC(=N)N)NC(=O)[C@H](CCCCN)NC(=O)[C@H](CCCCN)NC(=O)[C@@H](NC(=O)[C@H]2NC(=O)C3(CCCC3)NC(=O)[C@H](CCCN)NC(=O)[C@@H](Cc3c[nH]c4ccccc34)NC(=O)[C@H](Cc3ccc(O)cc3)NC(=O)[C@@H](NC(=O)[C@H](N)Cc3ccccc3)CSSC2(C)C)[C@@H](C)O)CCCC1)C(=O)N[C@@H](Cc1ccc(O)cc1)C(=O)N1CCC[C@H]1C(=O)N[C@H](C(=O)N[C@@H](Cc1ccc(O)cc1)C(=O)N[C@@H](CC(C)C)C(=O)N[C@@H](CCCCN)C(=O)N[C@@H](CCCCN)C(=O)N[C@H](Cc1ccccc1)C(=O)N[C@@H](CCC(N)=O)C(=O)N[C@@H](Cc1c[nH]c2ccccc12)C(=O)N[C@@H](C)C(=O)N[C@H](C(=O)NC(C)(C)C(=O)N[C@@H](Cc1c[nH]cn1)C(=O)N[C@@H](CC(C)C)C(N)=O)C(C)C)[C@@H](C)O [SEQ ID NO: 5, P4-Lys-Lys-P3-Lys-Lys-P1-Lys-P2] (H-[dF]CY[dW][Orn][Ac5c][Pen]TKK[dR]PKP[dF]Q[dW]F[dW]L[Ac5c]KKLMYPTYLKK[dF]QWAV[Aib]HL-NH2; disulfide 2-7) | 29.7 ± 3.8 | 28.2 ± 4.3 | 35.3 ± 4.8 | 59.4 ± 4.8 | 85.4 ± 5.0 | 24.2 ± 2.7 | 37.8 ± 4.6 | 48.2 ± 4.8 | 59.6 ± 4.9 | 84.5 ± 6.3 | 73.7 | 20.5 ± 3.2 | 21.5 ± 3.9 | 22.2 ± 2.8 | 28.2 ± 3.1 | 48.8 ± 3.6 | 10.4 ± 0.7 | 18.7 ± 1.9 | 34.7 ± 4.7 | 54.3 ± 5.2 | time in which the polypeptide disappeared completely on incubation with trypsin (trypsin): ~5 h; Percent cytotoxicity (MOLT-4 (Leukemia); 10 μM): 94.5 ± 6.1; Percent cytotoxicity (KB (Oral); 1 nM): 10.6 ± 1.2; Percent cytotoxicity (KB (Oral); 10 nM): 18.2 ± 1.9; Percent cytotoxicity (KB (Oral); 100 nM): 30.7 ± 3.9; Percent cytotoxicity (KB (Oral); 1 μM): 43.1 ± 5.3; Percent cytotoxicity (KB (Oral); 10 μM): 98.3 ± 5.7; Percent cytotoxicity (PTC (Colon); 1 nM): 16.5 ± 1.6; Percent cytotoxicity (PTC (Colon); 10 nM): 14.2 ± 2.2; Percent cytotoxicity (PTC (Colon); 100 nM): 16.8 ± 1.0; Percent cytotoxicity (PTC (Colon); 1 μM): 21.7 ± 2.9; Percent cytotoxicity (PTC (Colon); 10 μM): 27.9 ± 2.8
CSCC[C@H](NC(=O)[C@H](CC(C)C)NC(=O)[C@H](CCCCN)NC(=O)[C@H](CCCCN)NC(=O)[C@H](CC(C)C)NC(=O)[C@H](Cc1c[nH]cn1)NC(=O)C(C)(C)NC(=O)[C@@H](NC(=O)[C@H](C)NC(=O)[C@H](Cc1c[nH]c2ccccc12)NC(=O)[C@H](CCC(N)=O)NC(=O)[C@@H](Cc1ccccc1)NC(=O)[C@H](CCCCN)NC(=O)[C@H](CCCCN)NC(=O)C1(NC(=O)[C@H](CC(C)C)NC(=O)[C@@H](Cc2c[nH]c3ccccc23)NC(=O)[C@H](Cc2ccccc2)NC(=O)[C@@H](Cc2c[nH]c3ccccc23)NC(=O)[C@H](CCC(N)=O)NC(=O)[C@@H](Cc2ccccc2)NC(=O)[C@@H]2CCCN2C(=O)[C@H](CCCCN)NC(=O)[C@@H]2CCCN2C(=O)[C@H](N)CCCNC(=N)N)CCCC1)C(C)C)C(=O)N[C@@H](Cc1ccc(O)cc1)C(=O)N1CCC[C@H]1C(=O)N[C@H](C(=O)N[C@@H](Cc1ccc(O)cc1)C(=O)N[C@@H](CC(C)C)C(=O)N[C@@H](CCCCN)C(=O)N[C@@H](CCCCN)C(=O)N[C@H](Cc1ccccc1)C(=O)N[C@H]1CSSC(C)(C)[C@@H](C(=O)N[C@H](C(N)=O)[C@@H](C)O)NC(=O)C2(CCCC2)NC(=O)[C@H](CCCN)NC(=O)[C@@H](Cc2c[nH]c3ccccc23)NC(=O)[C@H](Cc2ccc(O)cc2)NC1=O)[C@@H](C)O [SEQ ID NO: 7, P3-Lys-Lys-P2-Lys-Lys-P1-Lys-P4] (H-[dR]PKP[dF]Q[dW]F[dW]L[Ac5c]KK[dF]QWAV[Aib]HLKKLMYPTYLKK[dF]CY[dW][Orn][Ac5c][Pen]T-NH2; disulfide 34-39) | 18.9 ± 2.0 | 19.0 ± 0.5 | 22.9 ± 1.4 | 23.6 ± 2.9 | 31.4 ± 3.7 | 24.9 ± 2.8 | 22.9 ± 1.4 | 23.8 ± 2.9 | 28.8 ± 1.9 | 27.8 ± 2.8 | 48.7 | 9.0 ± 0.6 | 10.4 ± 0.4 | 13.3 ± 0.1 | 14.9 ± 0.6 | 23.1 ± 0.9 | 23.7 ± 1.6 | 34.9 ± 4.9 | 46.0 ± 4.9 | 54.3 ± 4.9 | Percent cytotoxicity (MOLT-4 (Leukemia); 10 μM): 88.5 ± 6.8; Percent cytotoxicity (KB (Oral); 1 nM): 13.9 ± 1.9; Percent cytotoxicity (KB (Oral); 10 nM): 23.9 ± 1.8; Percent cytotoxicity (KB (Oral); 100 nM): 34.8 ± 3.9; Percent cytotoxicity (KB (Oral); 1 μM): 54.3 ± 5.8; Percent cytotoxicity (KB (Oral); 10 μM): 82.8 ± 5.4; Percent cytotoxicity (PTC (Colon); 1 nM): 13.5 ± 1.8; Percent cytotoxicity (PTC (Colon); 10 nM): 18.7 ± 0.5; Percent cytotoxicity (PTC (Colon); 100 nM): 23.5 ± 3.5; Percent cytotoxicity (PTC (Colon); 1 μM): 28.5 ± 2.1; Percent cytotoxicity (PTC (Colon); 10 μM): 17.9 ± 1.9
